Assay results taken from the supplement of paper PMC5908809.

Tests used:
KAI3 (IL-2 2.5 ng/mL) [1] = assay: drug sensitivity score (DSS) (DSS units); higher = more sensitive; extreme values may be limits of the assay; conditions: 72 h
[2] = tested on: normal primary NK cells, pool 1 (3 donors), resting (IL-2 0 ng/mL); assay: as above; conditions: 72 h
[3] = tested on: normal primary NK cells, pool 1 (3 donors) (IL-2 2.5 ng/mL); assay: as above; conditions: 72 h
[4] = tested on: normal primary NK cells, pool 2 (3 donors) (IL-2 2.5 ng/mL); assay: as above; conditions: 72 h
IMC-1 (IL-2 20 ng/mL) [5] = assay: as above; conditions: 72 h
[6] = tested on: normal primary NK cells, pool 3 (3 donors) (IL-2 2.5 ng/mL); assay: as above; conditions: 72 h
NK-YS (IL-2 2.5 ng/mL) [7] = assay: as above; conditions: 72 h
YT (IL-2 2.5 ng/mL) [8] = assay: as above; conditions: 72 h
NK-92 (IL-2 2.5 ng/mL) [9] = assay: as above; conditions: 72 h
KHYG-1 (IL-2 2.5 ng/mL) [10] = assay: as above; conditions: 72 h
NKL (IL-2 2.5 ng/mL) [11] = assay: as above; conditions: 72 h
DERL-7 (IL-2 2.5 ng/mL) [12] = assay: as above; conditions: 72 h
SNK-6 (IL-2 2.5 ng/mL) [13] = assay: as above; conditions: 72 h
[14] = tested on: normal NK cells expanded with K562-aAPC; assay: as above; conditions: 72 h; IL-2 2.5 ng/mL
Method: (§1)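 Drug sensitivity and resistance testing on K562-aAPC-expanded normal NK cells: 5 concentrations (10-fold steps over a 10,000-fold range), 72 h at 37 °C, viability by CellTiter-Glo normalised to DMSO and benzethonium chloride controls; DSS from the fitted curve.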

KAI3 (IL-2 2.5 ng/mL) [15] = assay: percent inhibition of viability; higher = more inhibition; conditions: 72 h
[16] = tested on: normal primary NK cells, pool 1 (3 donors), resting (IL-2 0 ng/mL); assay: as above; conditions: 72 h
[17] = tested on: normal primary NK cells, pool 1 (3 donors) (IL-2 2.5 ng/mL); assay: as above; conditions: 72 h
[18] = tested on: normal primary NK cells, pool 2 (3 donors) (IL-2 2.5 ng/mL); assay: as above; conditions: 72 h
IMC-1 (IL-2 20 ng/mL) [19] = assay: as above; conditions: 72 h
[20] = tested on: normal primary NK cells, pool 3 (3 donors) (IL-2 2.5 ng/mL); assay: as above; conditions: 72 h
NK-YS (IL-2 2.5 ng/mL) [21] = assay: as above; conditions: 72 h
YT (IL-2 2.5 ng/mL) [22] = assay: as above; conditions: 72 h
NK-92 (IL-2 2.5 ng/mL) [23] = assay: as above; conditions: 72 h
KHYG-1 (IL-2 2.5 ng/mL) [24] = assay: as above; conditions: 72 h
NKL (IL-2 2.5 ng/mL) [25] = assay: as above; conditions: 72 h
DERL-7 (IL-2 2.5 ng/mL) [26] = assay: as above; conditions: 72 h
SNK-6 (IL-2 2.5 ng/mL) [27] = assay: as above; conditions: 72 h
[28] = tested on: normal NK cells expanded with K562-aAPC; assay: as above; conditions: 72 h, IL-2 2.5 ng/mL
Method: as §1

O=C1CN2Cc3c(ccc(Cl)c3Cl)N=C2N1 [Anagrelide] (max concentration tested 10000 nM)
drug sensitivity score (KAI3 (IL-2 2.5 ng/mL) [1]): 2.01 | drug sensitivity score [2]: 0.58 | drug sensitivity score [3]: 0 | drug sensitivity score [4]: 0 | drug sensitivity score (IMC-1 (IL-2 20 ng/mL) [5]): 0 | drug sensitivity score [6]: 0 | drug sensitivity score (NK-YS (IL-2 2.5 ng/mL) [7]): 0 | drug sensitivity score (YT (IL-2 2.5 ng/mL) [8]): 0.03 | drug sensitivity score (NK-92 (IL-2 2.5 ng/mL) [9]): 1.23 | drug sensitivity score (KHYG-1 (IL-2 2.5 ng/mL) [10]): 0 | drug sensitivity score (NKL (IL-2 2.5 ng/mL) [11]): 0 | drug sensitivity score (DERL-7 (IL-2 2.5 ng/mL) [12]): 0 | drug sensitivity score (SNK-6 (IL-2 2.5 ng/mL) [13]): 1.18 | drug sensitivity score [14]: 0 | percent inhibition of viability (KAI3 (IL-2 2.5 ng/mL) [15]; 1 nM): -3.01% | percent inhibition of viability (KAI3 (IL-2 2.5 ng/mL) [15]; 10 nM): -16.8% | percent inhibition of viability (KAI3 (IL-2 2.5 ng/mL) [15]; 100 nM): 2.67% | percent inhibition of viability (KAI3 (IL-2 2.5 ng/mL) [15]; 1000 nM): 7.81% | percent inhibition of viability (KAI3 (IL-2 2.5 ng/mL) [15]; 10000 nM): 26.7% | percent inhibition of viability ([16]; 1 nM): -14.4% | percent inhibition of viability ([16]; 10 nM): 8.37% | percent inhibition of viability ([16]; 100 nM): 10.8% | percent inhibition of viability ([16]; 1000 nM): 4.74% | percent inhibition of viability ([16]; 10000 nM): 9.32% | percent inhibition of viability ([17]; 1 nM): -7.17% | percent inhibition of viability ([17]; 10 nM): 12.1% | percent inhibition of viability ([17]; 100 nM): 9.62% | percent inhibition of viability ([17]; 1000 nM): 3.68% | percent inhibition of viability ([17]; 10000 nM): 6.66% | percent inhibition of viability ([18]; 1 nM): -5.09% | percent inhibition of viability ([18]; 10 nM): 5.68% | percent inhibition of viability ([18]; 100 nM): 10.3% | percent inhibition of viability ([18]; 1000 nM): 2.48% | percent inhibition of viability ([18]; 10000 nM): 5.2% | percent inhibition of viability (IMC-1 (IL-2 20 ng/mL) [19]; 1 nM): -2% | percent inhibition of viability (IMC-1 (IL-2 20 ng/mL) [19]; 10 nM): -2.1% | percent inhibition of viability (IMC-1 (IL-2 20 ng/mL) [19]; 100 nM): 0.73% | percent inhibition of viability (IMC-1 (IL-2 20 ng/mL) [19]; 1000 nM): -7.98% | percent inhibition of viability (IMC-1 (IL-2 20 ng/mL) [19]; 10000 nM): 0.69% | percent inhibition of viability ([20]; 1 nM): -7.45% | percent inhibition of viability ([20]; 10 nM): -4.06% | percent inhibition of viability ([20]; 100 nM): -2.15% | percent inhibition of viability ([20]; 1000 nM): -4.72% | percent inhibition of viability ([20]; 10000 nM): -5.66% | percent inhibition of viability (NK-YS (IL-2 2.5 ng/mL) [21]; 1 nM): -1.23% | percent inhibition of viability (NK-YS (IL-2 2.5 ng/mL) [21]; 10 nM): -6.42% | percent inhibition of viability (NK-YS (IL-2 2.5 ng/mL) [21]; 100 nM): 0.98% | percent inhibition of viability (NK-YS (IL-2 2.5 ng/mL) [21]; 1000 nM): -1.47% | percent inhibition of viability (NK-YS (IL-2 2.5 ng/mL) [21]; 10000 nM): 9.94% | percent inhibition of viability (YT (IL-2 2.5 ng/mL) [22]; 1 nM): -4.72% | percent inhibition of viability (YT (IL-2 2.5 ng/mL) [22]; 10 nM): -11.3% | percent inhibition of viability (YT (IL-2 2.5 ng/mL) [22]; 100 nM): -2.78% | percent inhibition of viability (YT (IL-2 2.5 ng/mL) [22]; 1000 nM): -6.4% | percent inhibition of viability (YT (IL-2 2.5 ng/mL) [22]; 10000 nM): 13% | percent inhibition of viability (NK-92 (IL-2 2.5 ng/mL) [23]; 1 nM): -16.3% | percent inhibition of viability (NK-92 (IL-2 2.5 ng/mL) [23]; 10 nM): -4.98% | percent inhibition of viability (NK-92 (IL-2 2.5 ng/mL) [23]; 100 nM): 5.49% | percent inhibition of viability (NK-92 (IL-2 2.5 ng/mL) [23]; 1000 nM): 11% | percent inhibition of viability (NK-92 (IL-2 2.5 ng/mL) [23]; 10000 nM): 18.2% | percent inhibition of viability (KHYG-1 (IL-2 2.5 ng/mL) [24]; 1 nM): -5.21% | percent inhibition of viability (KHYG-1 (IL-2 2.5 ng/mL) [24]; 10 nM): -5.67% | percent inhibition of viability (KHYG-1 (IL-2 2.5 ng/mL) [24]; 100 nM): -5.27% | percent inhibition of viability (KHYG-1 (IL-2 2.5 ng/mL) [24]; 1000 nM): 2.55% | percent inhibition of viability (KHYG-1 (IL-2 2.5 ng/mL) [24]; 10000 nM): 2.12% | percent inhibition of viability (NKL (IL-2 2.5 ng/mL) [25]; 1 nM): -8% | percent inhibition of viability (NKL (IL-2 2.5 ng/mL) [25]; 10 nM): -3.63% | percent inhibition of viability (NKL (IL-2 2.5 ng/mL) [25]; 100 nM): 5.32% | percent inhibition of viability (NKL (IL-2 2.5 ng/mL) [25]; 1000 nM): 5.47% | percent inhibition of viability (NKL (IL-2 2.5 ng/mL) [25]; 10000 nM): 9.73% | percent inhibition of viability (DERL-7 (IL-2 2.5 ng/mL) [26]; 1 nM): 0.58% | percent inhibition of viability (DERL-7 (IL-2 2.5 ng/mL) [26]; 10 nM): -15.8% | percent inhibition of viability (DERL-7 (IL-2 2.5 ng/mL) [26]; 100 nM): 5.22% | percent inhibition of viability (DERL-7 (IL-2 2.5 ng/mL) [26]; 1000 nM): -2.15% | percent inhibition of viability (DERL-7 (IL-2 2.5 ng/mL) [26]; 10000 nM): -3.54% | percent inhibition of viability (SNK-6 (IL-2 2.5 ng/mL) [27]; 1 nM): -14.4% | percent inhibition of viability (SNK-6 (IL-2 2.5 ng/mL) [27]; 10 nM): -27.6% | percent inhibition of viability (SNK-6 (IL-2 2.5 ng/mL) [27]; 100 nM): -25% | percent inhibition of viability (SNK-6 (IL-2 2.5 ng/mL) [27]; 1000 nM): 10.6% | percent inhibition of viability (SNK-6 (IL-2 2.5 ng/mL) [27]; 10000 nM): 16.6% | percent inhibition of viability ([28]; 1 nM): -10.7% | percent inhibition of viability ([28]; 10 nM): -8.47% | percent inhibition of viability ([28]; 100 nM): -7.13% | percent inhibition of viability ([28]; 1000 nM): 1.09% | percent inhibition of viability ([28]; 10000 nM): 4.94%
